According to US5279956A, “Activated protein C polypeptides and anti-peptide antibodies, diagnostic methods and systems for inhibiting activated protein C” (The Scripps Research Institute, priority 1991, dated 1994):
Read-outs that look alike come from different tables or passages of the source. No end group written: not given here.

What was measured:
[1] = target: T1, APC (Homo sapiens, UniProt P04070); assay: Amidolytic activity of APC towards chromogenic substrate S-2366; assay type: biochemical; conditions: for effect on APC amidolytic activity towards S-2366: all concentrations up to 500 μM
T1 construct: begins at amino acid residue position 158 and ends at 419; The light chain is 155 amino acid residues in length; tissue Factor IX concentrate from Immuno AG, Vienna; thrombin from Enzyme Research Laboratories
T1 sequence (P04070 212-461): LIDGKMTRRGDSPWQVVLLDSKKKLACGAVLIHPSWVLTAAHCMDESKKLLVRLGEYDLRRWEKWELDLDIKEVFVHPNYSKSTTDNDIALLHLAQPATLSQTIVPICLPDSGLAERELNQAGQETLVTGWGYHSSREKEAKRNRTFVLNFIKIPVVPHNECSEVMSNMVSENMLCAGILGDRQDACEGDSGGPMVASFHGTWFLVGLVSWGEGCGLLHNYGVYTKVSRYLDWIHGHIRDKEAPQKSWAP
T1 sequence (P04070 43-197): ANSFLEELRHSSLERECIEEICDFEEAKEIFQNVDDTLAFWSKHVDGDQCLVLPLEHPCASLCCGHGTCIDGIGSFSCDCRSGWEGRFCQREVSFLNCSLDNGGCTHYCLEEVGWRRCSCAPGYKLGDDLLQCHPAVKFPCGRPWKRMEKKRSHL
Procedure: The effects of PC-derived inhibitory synthetic peptides on the amidolytic activity of APC were evaluated to determine if the peptides inhibited APC anticoagulant activity by blocking a region in or close to the active site of the enzyme involved in cleavage of a small substrate such as S-2366 (Kabi-Vitrum) or involved in the site of interaction with the recombinant mutant (Arg^358)α1 -antitrypsin (α1 -AT) (Transgene, Strasbourg, France), the latter of which is described in Example 5a4) below. The assay was performed as described by Marlar et al., supra; and Suzuki et al., supra.
The amidolytic activity of APC toward the peptide substrate S-2366 was measured in the presence of various PC synthetic peptides prepared in Example 1. For the assay, 100 μl of 15 nM APC, prepared in Example 2c2), was admixed with separate aliquots of peptide-(390-404) ranging in concentration from 0.0 to 750 μM prepared in TBS-BSA at pH 7.4 containing 0.02% NaN3 and 2 mM CaCl2 to form APC-peptide admixtures, respectively. After maintenance of the admixtures for 30 minutes at 37° C., 50 μl of 2.4 mM S-2366 in the same buffer was admixed to initiate the amidolytic reaction. The hydrolysis of the substrate was monitored by the change in absorbance at 405 nm at 37° C. over time using an EL312 Microplate Bio-Kinetics Reader (BIO-TEK Instruments, Inc. Vt.).
The amidolytic activity of APC toward the peptide substrate S-2366 was measured in the presence of anti-(390-404) antibody. For the assay, 100 μl of 15 nM APC, prepared in Example 2c2), were admixed with separate aliquots of anti-(390-404) antibody ranging in concentration from 0.0 to 500 nM prepared in TBS-BSA at pH 7.4 containing 0.02% NaN3 and 2 mM CaCl2 to form APC-anti-(390-404) antibody immunoreaction admixtures, respectively. After maintenance of the admixtures for 30 minutes at 37° C. to allow formation of immunoreaction products, 50 μl of 2.4 mM S-2366 in the same buffer was admixed to initiate the amidolytic reaction. The hydrolysis of the substrate was monitored by the change in absorbance at 405 nm over time using an EL312 Microplate Bio-Kinetics Reader (BIO-TEK Instruments, Inc. Vt.).

[2] = target: T1, APC; assay: APC anticoagulant activity, APTT and Xa-1-stage coagulation assays (mean or both); assay type: biochemical; conditions: for IC50: final peptide concentration at which 50% inhibition of APC activity was observed; for inhibition at 500 µM: 500 μM peptide, mean of APTT and Xa-1-stage assays, 0 = no observable effect ± 10%
Procedure: The effect of the synthetic peptides on APC anticoagulant activity were determined using the APTT assay in the presence of either normal citrate anticoagulated plasma (NHP) or protein S depleted plasma (PSDP). The assays were performed essentially as described. See Marlar et al., Blood, 59:1067-1072 […]; Suzuki et al., J. Biol. Chem., 258:163-168 (1983); Gruber et al., Blood, 73:639-642 (1989); Ohlin et al., Biochem., 29:644-651 (1990). NHP was purchased from George King Bio-Medical, Inc. (Overland Park, Kans.). PSDP was prepared from a normal human citrate-anticoagulated plasma pool from ten healthy donors. Protein S was immunodepleted from the NHP by immunoaffinity chromatography of NHP over an anti-protein S antibody column to form PSDP. The anti-protein S antibody column was prepared by coupling 100 mg of a monoclonal, high-affinity, calcium-independent anti-PS antibody, designated S7, to 30 ml of CNBr-activated Sepharose 4B (Pharmacia) as described in Example 2c1).
For the APTT assay, APC was prepared as described in Example 2c2). […] The concentration of the APC used in the assay was initially optimized with respect to the sensitivity of the assay towards APC-induced prolongation of clotting time compared to clotting time without APC.
Once the optimal concentration of APC was determined, peptides from Table 2 were then separately admixed for a final concentration of 500 μM with 10 nM APC in 100 μl of TBS-BSA at pH 7.4 to form peptide-APC admixtures. The resulting admixtures were maintained for seven minutes at 37° C. Separate aliquots of peptides maintained under the same conditions in the absence of APC served as controls for the inhibitory effect of synthetic peptides on APC anticoagulant activity. After the maintenance period, 100 μl of NHP and 100 μl APTT-reagent Thrombosil (Ortho Diagnostics, Raritan, N.J.) were admixed into each peptide admixture and maintained for 200 seconds at 37° C. to form a pre-coagulation admixture. In some experiments, PSDP was used in the place of NHP to determine the effect of Protein S on the assay system. Coagulation was then initiated by the admixture of 100 μl of 30 mM CaCl2 in TBS prewarmed to 37° C. to each of the pre-coagulation admixtures. The time for clot formation was measured by an Electra 700 Automatic Coagulation Timer (Medical Laboratory Automation, Inc., Mount Vernon, N.Y.). Each peptide's effect was determined in duplicate.
The synthetic peptides listed in Table 4 are presented in the same order as listed in Table 2, i.e., are reproduced from Table 2. […] For peptides at a concentration of 500 μM that inhibited at least 50% of APC anticoagulant activity, analysis of dose-response was subsequently conducted. The column in Table 4 labeled "Inhibition of APC" represents the inhibition of APC anticoagulant activity measured with 500 μM peptide.
For testing the inhibition of the synthetic peptides on APC activity described above, Xa-1-stage coagulation assays were also performed as described. See Seegers et al., Thrombosis Res., 13:233-243 (1978); Marlar et al., supra; and Walker et al., J. Biol. Chem. 265:1484-1489 (1990).

[3] = final peptide concentration at which 90% inhibition of APC activity was observed, read-out: IC90

| Substance | APC amidolytic activity towards S-2366, A405 /5 min ([1]; APC + 250 μM peptide) [A405 /5 min] | effect on APC amidolytic activity towards S-2366 [1] | IC90 [2] [µM] | IC50 [2] [µM] | APC amidolytic activity towards S-2366, A405 /5 min ([1]; APC + 500 μM peptide) [A405 /5 min] | inhibition at 500 µM [2] [%] | IC90 [2, 3] [µM] |
| --- | --- | --- | --- | --- | --- | --- | --- |
| KRNRTFVLNFIKIPV-NH2 [peptide-(311-325), KRNRTFVLNFIKIPV] | 0.342 | did not significantly alter | 50 | 20 | – | – | – |
| SGLLHNYGVYTKVSR-NH2 [peptide-(384-398), -SGLLHNYGVYTKVSR] | – | did not significantly alter | – | – | 0.378 | 60 | > 500 |
| YGVYTKVSRYLDWIH-NH2 [peptide-(390-404), YGVYTKVSRYLDWIH] | – | – | – | 5 | – | 100 | 40 |
